Results reported in patent US20250073338A1, “CONJUGATE COMPOUNDS AND COMPOSITIONS” (REZUBIO PHARMACEUTICALS CO., LTD, priority 2023, published 2025).
Where a name gives a salt, the structure may show the parent alone.

target: T1, GPR40 (Homo sapiens, UniProt O14842); assay: IP1 accumulation assay in HEK293 cells stably expressing GPR40; format: cell-based; settings: HEK293 cells stably expressing GPR40, 2 hours at 37° C.
T1 construct: expressed in transfected cells
Description: IP1 accumulation assay was used to evaluate the potency of compounds. HEK293 cells stably expressing GPR40 were cultured in 5% CO2 incubator (ThermoFisher) in maintenance media (Dulbecco's modified Eagle's medium with 4.5 g/L of glucose, 10% fetal bovine serum, 100 μg/mL Hygromycin, and Penicillin (100 U/mL)/Streptomycin (100 μg/mL)) till 100% confluency. Cells were harvested freshly, spun down at 300× g for 5 min, and resuspended in pre-warmed 1× stimulant buffer from Cisbio IP-One HTRF Detection kit (Cisbio). Cell density was adjusted to 2.0×10^6 cells/mL. DMSO was used as blank control and AMG-1638 (CAS #: 1142214-62-7) as positive control. Compounds were prepared at 10 mM in DMSO and 5 nL of 3× serially diluted compounds (10 concentrations) were added to each well of the 384-LDV assay plate (Corning) by using ECHO 550 (Labcyte). Five μL of cells in suspension were transferred into each well by using Multidrop Combi Reagent Dispenser (ThermoFisher). Assay plate was then sealed and incubated at 37° C. for 2 hours. IP-d2 reagent and anti-IP1 reagent were prepared following the manual (Cisbio). Five μL of IP1-d2 and then 5 μL of anti-IP1 antibody was added to each well sequentially. Assay plate was incubated at room temperature for 60 min and then read at 665 nm/615 nm on an Envision plate reader (PerkinElmer). The ratio of values obtained at 665 nm and 615 nm was used for calculation of IP1 accumulation: % Effect=(Ratiosample−Ratioblank)/(RatioAMG-1638−Ratioblank)×100. Dose curve was fitted and EC50 of each compound was calculated by using XLFit.

T1 sequence (O14842 whole entry): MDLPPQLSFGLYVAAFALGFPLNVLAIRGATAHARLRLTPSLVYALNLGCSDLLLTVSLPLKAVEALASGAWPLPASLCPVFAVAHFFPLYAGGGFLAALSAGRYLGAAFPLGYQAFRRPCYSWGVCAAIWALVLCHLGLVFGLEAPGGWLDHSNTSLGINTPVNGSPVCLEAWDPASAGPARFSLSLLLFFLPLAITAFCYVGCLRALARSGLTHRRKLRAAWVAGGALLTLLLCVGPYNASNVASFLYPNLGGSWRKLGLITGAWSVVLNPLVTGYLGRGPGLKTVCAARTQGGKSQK

Compound | EC50 [nM]
COc1ccc(C(=O)N(CC(C)(C)CCCCCCCCCCCCCCCCCCCC(=O)NCCN(CCC(=O)NCCN)CCC(=O)NCCN)c2cccc(C)n2)c(N2CCC(COc3cc([C@@H](CC(=O)O)C4CC4)ccn3)CC2)c1 [Example 1] | 1.23
COc1ccc(C(=O)N(CC(C)(C)CCCCCCCCCCCCCCCCCCCC(=O)NCCN(CC(=O)NCCN)CC(=O)NCCN)c2cccc(C)n2)c(N2CCC(COc3cc([C@@H](CC(=O)O)C4CC4)ccn3)CC2)c1 [Example 2] | 2
COc1ccc(C(=O)N(CC(C)(C)CCCCCCCCCCCCCCCCCCCC(=O)NCC[N+](C)(CCC(=O)NCCN)CCC(=O)NCCN)c2cccc(C)n2)c(N2CCC(COc3cc([C@@H](CC(=O)O)C4CC4)ccn3)CC2)c1 [Example 3] | 1.79
COc1ccc(C(=O)N(CC(C)(C)CCCCCCCCCCCCCCCCCCCC(=O)NCCCN(CC(=O)NCCN)CC(=O)NCCN)c2cccc(C)n2)c(N2CCC(COc3cc([C@@H](CC(=O)O)C4CC4)ccn3)CC2)c1 [Example 5] | 1.73
COc1ccc(C(=O)N(CC(C)(C)CCCCCCCCCCCCCCCCCCCC(=O)NCCC[N+](C)(CC(=O)NCCN)CC(=O)NCCN)c2cccc(C)n2)c(N2CCC(COc3cc([C@@H](CC(=O)O)C4CC4)ccn3)CC2)c1 [Example 6] | 0.84
COc1ccc(C(=O)N(CC(C)(C)CCCCCCCCCCCCCCCCCC(=O)NCC[N+](C)(CC(=O)NCCN)CC(=O)NCCN)c2cccc(C)n2)c(N2CCC(COc3cc([C@@H](CC(=O)O)C4CC4)ccn3)CC2)c1 [Example 7] | 0.53
COc1ccc(C(=O)N(CC(C)(C)CCCCCCCCCCCCCCCCCCCC(=O)NCCN(CCCC(=O)NCCN)CCCC(=O)NCCN)c2cccc(C)n2)c(N2CCC(COc3cc([C@@H](CC(=O)O)C4CC4)ccn3)CC2)c1 [Example 8] | 0.28
COc1ccc(C(=O)N(CC(C)(C)CCCCCCCCCCCCCCCCCCCC(=O)NCC[N+](C)(CCCC(=O)NCCN)CCCC(=O)NCCN)c2cccc(C)n2)c(N2CCC(COc3cc([C@@H](CC(=O)O)C4CC4)ccn3)CC2)c1 [Example 9] | 0.35
COc1ccc(C(=O)N(CC(C)(C)CCCCCCCCCCCCCCCCCCCCC(=O)NCC[N+](C)(CC(=O)NCCN)CC(=O)NCCN)c2cccc(C)n2)c(N2CCC(COc3cc([C@@H](CC(=O)O)C4CC4)ccn3)CC2)c1 [Example 10] | 3.65

Now from value to compound:

EC50 [nM] | Compound
1.34 | COc1ccc(C(=O)N(CC(C)(C)CCCCCCCCCCCCCCCCCCCCCC(=O)NCC[N+](C)(CC(=O)NCCN)CC(=O)NCCN)c2cccc(C)n2)c(N2CCC(COc3cc([C@@H](CC(=O)O)C4CC4)ccn3)CC2)c1 [Example 11, (S)-2-((2-aminoethyl)amino)-N-(2-((2-aminoethyl)amino)-2-oxoethyl)-N-(2-(24-(2-(4-(((4-(2-carboxy-1-cyclopropylethyl)pyridin-2-yl)oxy)methyl)piperidin-1-yl)-4-methoxy-N-(6-methylpyridin-2-yl)benzamido)-23,23-dimethyltetracosanamido)ethyl)-N-methyl-2-oxoethanaminium trifluoroacetate]
0.67 | COc1ccc(C(=O)N(CC(C)(C)CCCCCCCCCCCCCCCCCCCC(=O)NCCCN(C)CC(=O)NCCN)c2cccc(C)n2)c(N2CCC(COc3cc([C@@H](CC(=O)O)C4CC4)ccn3)CC2)c1 [Example 15]
0.48 | COc1ccc(C(=O)N(CC(C)(C)CCCCCCCCCCCCCCCCCCCC(=O)NCCC[N+](C)(C)CC(=O)NCCN)c2cccc(C)n2)c(N2CCC(COc3cc([C@@H](CC(=O)O)C4CC4)ccn3)CC2)c1 [Example 16]
3.57 | C[C@H](C(=O)O)[C@H](c1ccc2c(c1)O[C@@H](C1CCN(Cc3cc(CCCCCCCCCCCCCCCCCCCC(=O)NCCC[N+](C)(CC(=O)NCCN)CC(=O)NCCN)ccc3OC(F)(F)F)CC1)CC2)C1CC1 [Example 20]
0.36 | COc1ccc(C(=O)N(CC(C)(C)CCCCCCCCCCCCCCCCCC[N+]23CCN(CC2)CC3)c2cccc(C)n2)c(N2CCC(COc3cc([C@@H](CC(=O)O)C4CC4)ccn3)CC2)c1 [Example 22]
